The values that follow come from patent US11578055B2, “Triazacyclododecansulfonamide (“TCD”)-based protein secretion inhibitors” (KEZAR LIFE SCIENCES, priority 2018, dated 2023).

The test system of series [1] is full length TNFα (amino acids 1-233) fused to Gaussia Luciferase. The series can be described thus: Dox Induced TNFα-FL-Gluc Assay. The series is classed as cell-based. Particulars: 24 hr, Dox inducible, 293FRT/TO cells; read-out: 24 hr Dox Inducible TNFaFLGluc 293FRT/TO: Mean IC50. Summed up:
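Compounds diluted in DMSO/medium with doxycycline were incubated at 37° C, 5% CO2 with 293 T-REx cells stably carrying a Tet-regulated TNFα(1-233)-Gaussia luciferase construct. Data for structures drawn without stereochemistry refer to stereoisomer mixtures.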

Series [2] can be described thus: In Vitro Microsome Stability Assay (rat). The series is classed as in vitro ADME. The conditions noted are these: rat liver microsomes, 30 min w/ NADPH. An outline of the steps: (§1)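 The value reported is the percentage of parent left after 30 min, calculated from analyte/IS peak-area ratios relative to time zero by LC-MS/MS. Incubations ran at 37° C in 0.1 M potassium phosphate with NADPH and microsomes (stock 20 mg/mL), with compound added from a 0.25 mM DMSO stock. Acetonitrile containing IS stopped the reactions.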

Series [3] is described as follows: In Vitro Microsome Stability Assay (mouse). It counts as in vitro ADME. The conditions noted are these: mouse liver microsomes, 30 min w/ NADPH. An outline of the steps:
as §1

Series [4] is described as follows: In Vitro Microsome Stability Assay (monkey). The series is classed as in vitro ADME. Particulars: monkey liver microsomes, 30 min w/ NADPH. An outline of the steps:
as §1

Series [5] has as its system multiple myeloma cell line U266B1. The series can be described thus: U266 Cell Viability Assay. It counts as cell-based, human. Particulars: Homo sapiens, U-266; 48 hr, U266, Celltiter-Glo. An outline of the steps:
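Viability was measured by CellTiter-Glo luminescence after 48 h compound exposure at 37° C, 5% CO2. The cells were U266B1 multiple myeloma cells grown in RPMI 1640 plus 10% FBS. Where stereochemistry is not shown, values apply to the stereoisomer mixture.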

The test system of series [6] is full length IL-2 (amino acids 1-153) fused to Gaussia Luciferase. The series can be described thus: Dox Induced IL2-FL-Gluc Assay. It counts as cell-based. Particulars: 24 hr, Dox inducible, 293FRT/TO cells; read-out: 24 hr Dox Inducible IL2FLGluc 293FRT/TO: Mean IC50. An outline of the steps:
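Compounds in DMSO/media with doxycycline were added to cells plated the previous day and incubated at 37° C, 5% CO2. Cells: stable Flp-In 293 T-REx line, Dox-regulated expression of IL-2 (aa 1-153) fused at its C-terminus to Gaussia luciferase.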

Series [7] in a line: In Vitro Microsome Stability Assay (human). The series is classed as in vitro ADME. The conditions noted are these: human liver microsomes, 30 min w/ NADPH. Summed up: as §1
Series [8] deals with multiple myeloma cell line NCl-H929. In words: H929 Cell Viability Assay. The series is classed as cell-based, human. Particulars: Homo sapiens, NCI-H929, 48 h, H929, Celltiter-Glo. Summed up:
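Viability was determined by CellTiter-Glo luminescence after a 48 h, 37 °C exposure of NCI-H929 cells to serial compound dilutions in medium containing 10% FBS. Where stereochemistry is not shown, values refer to a mix of stereoisomers.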

The subject of series [9] is PD1 signal sequence plus 10 amino acids fused to Gaussia Luciferase (PD1-ss+10aa/Gaussia Luciferase). In words: Dox Induced PD1-ss-Gluc Assay. It counts as cell-based. The conditions noted are these: 24 hr, Dox inducible, 293FRT/TO cells; read-out: 24 hr Dox Inducible PD1ssGluc 293FRT/TO: Mean IC50. An outline of the steps:
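Compound dilutions in DMSO/media containing doxycycline were applied to a stable, inducible 293 T-REx line carrying the luciferase fusion, then incubated at 37 °C, 5% CO2. Where stereochemistry is not drawn, values relate to isomer mixtures.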

Take `CC(C)N1CCCN(S(=O)(=O)c2ccc(N(C)C)cc2)C[C@H](C)CN(S(=O)(=O)N2CCc3cc(Cl)ccc3C2)CCC1` [A141, 4-{[(3S)-5-[(6-chloro-1,2,3,4-tetrahydroisoquinolin-2-yl)sulfonyl]-3-methyl-9-(propan-2-yl)-1,5,9-triazacyclododecan-1-yl]sulfonyl}-N,N-dimethylaniline]: the IC50 came out at 4.24 µM in [1], 0.863 µM in series [6] and 0.431 µM in [9]. Besides, the “Liver Microsome Stability-% Left after 30 min w/ NADPH (%) Rat” value (“Liver Microsome Stability-% Left … (%) Rat” for short) in series [2] is 1.14%. In series [3], the “Liver Microsome Stability-% Left after 30 min w/ NADPH (%) Mouse” value (“Liver Microsome Stability-% Left … (%) Mouse” for short) is listed as 0.48%. The “Liver Microsome Stability-% Left after 30 min w/ NADPH (%) Monkey” value (shortened to “Liver Microsome Stability-% Left … (%) Monkey”) in [4] amounted to 0.66%. Also, the EC50 in series [5] is more than 25 µM; in series [8], 9.11 µM. In series [7], the “Liver Microsome Stability-% Left after 30 min w/ NADPH (%) Human” value (“Liver Microsome Stability-% Left … (%) Human” for short) is recorded as 0.26%.
`C[C@H]1CN(S(=O)(=O)c2ccc(N(C)C)cc2)CCCN(CC2=CCCC2)CCCN(S(=O)(=O)N2CCc3cc(Cl)ccc3C2)C1` [A142]: the values for the IC50 in series [1], in series [6] and in series [9] were 0.741 µM, 0.067 µM and 0.0382 µM, respectively. Also, the “Liver Microsome Stability-% Left … (%) Rat” value in series [2] is on record as 22.6%. Moreover, the “Liver Microsome Stability-% Left … (%) Mouse” value in series [3] came out at 16%. For the same molecule, the “Liver Microsome Stability-% Left … (%) Monkey” value in series [4] is on record as 3.89%. The EC50 in [5] is more than 25 µM; in series [8] it was 1.45 µM. Besides, the “Liver Microsome Stability-% Left … (%) Human” value in series [7] amounted to 11.8%.
In the case of `C[C@H]1CCN(S(=O)(=O)c2ccc(N(C)C)cc2)CCCN(CC2CCCCC2)CCCN1S(=O)(=O)N1CCc2cc(Cl)ccc2C1` [A147, 4-{[(4 S)-5-[(6-chloro-1,2,3,4-tetrahydroisoquinolin-2-yl)sulfonyl]-9-(cyclohexylmethyl)-4-methyl-1,5,9-triazacyclododecan-1-yl]sulfonyl}-N,N-dimethylaniline], the results for the IC50 in series [1], in series [6] and in [9] were more than 25 µM, more than 25 µM and 4.12 µM, respectively. For the same molecule, the “Liver Microsome Stability-% Left … (%) Rat” value in series [2] stood at 1.16%. Also, the “Liver Microsome Stability-% Left … (%) Mouse” value in series [3] worked out at 0.74%. In addition, the “Liver Microsome Stability-% Left … (%) Monkey” value in series [4] came out at 0.99%. For the same molecule, the EC50 in series [5] and in series [8] was more than 25 µM throughout. Also, in [7], the “Liver Microsome Stability-% Left … (%) Human” value was found to be 2.76%.
For the molecule `C[C@@H]1CCN(S(=O)(=O)c2ccc(N(C)C)cc2)CCCN(CC2CCCCC2)CCCN1S(=O)(=O)N1CCc2cc(Cl)ccc2C1` [A148, 4-{[(4 R)-5-[(6-chloro-1,2,3,4-tetrahydroisoquinolin-2-yl)sulfonyl]-9-(cyclohexylmethyl)-4-methyl-1,5,9-triazacyclododecan-1-yl]sulfonyl}-N,N-dimethylaniline], the IC50 in series [1] is more than 25 µM; in [6] it was 1.12 µM; in series [9], 0.926 µM. Besides, the “Liver Microsome Stability-% Left … (%) Rat” value in [2] came to 1.29%. Besides, the “Liver Microsome Stability-% Left … (%) Mouse” value in [3] is 1.59%. The “Liver Microsome Stability-% Left … (%) Monkey” value in series [4] stood at 0.67%. Further, the EC50 in series [5] and in series [8] was more than 25 µM in each case. In series [7], the “Liver Microsome Stability-% Left … (%) Human” value turned out to be 0.52%.
Regarding `C[C@@H]1CCN(S(=O)(=O)N2CCc3cc(Cl)ccc3C2)CCCN(CC2CCCCC2)CCCN1S(=O)(=O)c1ccc(N(C)C)cc1` [A149, 4-{[(2 R)-5-[(6-chloro-1,2,3,4-tetrahydroisoquinolin-2-yl)sulfonyl]-9-(cyclohexylmethyl)-2-methyl-1,5,9-triazacyclododecan-1-yl]sulfonyl}-N,N-dimethylaniline], the IC50 in series [1], in [6] and in [9] was more than 25 µM throughout. Besides, in [2], the “Liver Microsome Stability-% Left … (%) Rat” value was 0.47%. Further, the “Liver Microsome Stability-% Left … (%) Mouse” value in series [3] is 0.83%. Besides, the “Liver Microsome Stability-% Left … (%) Monkey” value in series [4] is listed as 0.96%. Further, the concentration giving a half-maximal response (EC50) in series [5] and in series [8] was more than 25 µM throughout. Further, the “Liver Microsome Stability-% Left … (%) Human” value in series [7] came out at 0.44%.
